# Test results as given in PMC9352670 (2022).
# Tests used:
# Assay in all cases: microscale thermophoresis
# [1] = test system: Dm-HS-5 ∆ s.c. (DNA, aptamer, none (no side-chains)) GAAAGCAGGACTGGAGATCGATTCTGGTGCTGTTGATCTCCGCCATTGTGCTCCTGCCCTTCACAGACCGAACTAGAGCTT; details: 5 mM KCl, 1 mM MgCl2, 1 mM CaCl2 added; HBS-P+ buffer, 25 °C
# [2] = test system: Dm-HS-1 TGT ∆ s.c. (DNA, aptamer, as Dm-HS-1 but no side-chain at 31: fluorophenyl at 19; allylamine at 22,25,37; alcohol at 28,34,49; phenol at 46; cyclopentyl at 40; cyclopropyl at 43,58; imidazole at 52,55,61) GAAAGCAGGACTGGAGATCGATTCTGGTGCTGTTGATCTCCGCCATTGTGCTCCTACCCTTCACAGACCGAACTAGAGCTT; details: 5 mM KCl, 1 mM MgCl2, 1 mM CaCl2 added; HBS-P+ buffer, 25 °C
# [3] = test system: Dm-HS-8 (DNA, aptamer, HFNAP: side-chain on 5' nucleobase of each coding trinucleotide, positions 19,22,25,...,61 (codon key Figure 1B)) GAAAGCAGGACTGGAGATCGATTGCAGTTACGTCTCCCCTGCCCACCTTATTGCCATTCATAACAGACCGAACTAGAGCTT; details: 5 mM KCl, 1 mM MgCl2, 1 mM CaCl2 added; HBS-P+ buffer, 25 °C
# [4] = test system: Dm-HS-1 TCT ∆ s.c. (DNA, aptamer, no side-chain at 37 (codon 7 TCT); others as HFNAP: fluorophenyl at 19; allylamine at 22, 25; alcohol at 28, 34, 49; phenol at 31, 46; cyclopentyl at 40; cyclopropyl at 43, 58; imidazole at 52, 55, 61) GAAAGCAGGACTGGAGATCGATTCTGGTGCTGTTGATCTCCGCCATTGTGCTCCTACCCTTCACAGACCGAACTAGAGCTT; details: 5 mM KCl, 1 mM MgCl2, 1 mM CaCl2 added to HBS-P+; HBS-P+ buffer, 25 °C
# [5] = test system: Dm-HS-3 ∆ s.c. (DNA, aptamer, none (no side-chains)) GAAAGCAGGACTGGAGATCGATTATTGTGATTTTGATCTCCTCCATATCCCCTTCCCTACTCGCAGACCGAACTAGAGCTT; details: 5 mM KCl, 1 mM MgCl2, 1 mM CaCl2 added; HBS-P+ buffer, 25 °C
# [6] = test system: Dm-LS-3 (DNA, aptamer, HFNAP: side-chain on 5' nucleobase of each coding trinucleotide, positions 19,22,25,...,61 (codon key Figure 1B)) GAAAGCAGGACTGGAGATTCGCATCGCTACTCCTCCTTGCCGTCCCACCGCCCACTGCTACCTCAGACCGAACTAGAGCTT; details: 5 mM KCl, 1 mM MgCl2, 1 mM CaCl2 added; HBS-P+ buffer, 25 °C
compound,measurement,setting,value
COc1cccc2c1C(=O)c1c(O)c3c(c(O)c1C2=O)C[C@@](O)(C(C)=O)C[C@@H]3O[C@H]1C[C@H](N)[C@H](O)[C@H](C)O1,Kd ∆ side-chains,[1],4500 ± 210 nM
same,Kd,[2],6.7 ± 1.0 nM
same,Kd,[3],32.26 ± 8.9 nM
same,Kd,[4],12.9 ± 1.5 nM
same,Kd ∆ side-chains,[5],4450 ± 280 nM
same,Kd,[6],2230 ± 100 nM
